Data reported in paper PMC10747462, “A Hydrolase Produced by Rhodococcus erythropolis HQ Is Responsible for the Detoxification of Zearalenone” (Toxins, 2023).

Test system: T1, ZenR
T1 construct: gene PXH69_30770
Details: read-out: Km,app; optimal conditions (55 °C, pH 8.0-9.0); 10-300 μM ZEN; no metal needed

T1 sequence (A0AAW6LW22 entry or part of it): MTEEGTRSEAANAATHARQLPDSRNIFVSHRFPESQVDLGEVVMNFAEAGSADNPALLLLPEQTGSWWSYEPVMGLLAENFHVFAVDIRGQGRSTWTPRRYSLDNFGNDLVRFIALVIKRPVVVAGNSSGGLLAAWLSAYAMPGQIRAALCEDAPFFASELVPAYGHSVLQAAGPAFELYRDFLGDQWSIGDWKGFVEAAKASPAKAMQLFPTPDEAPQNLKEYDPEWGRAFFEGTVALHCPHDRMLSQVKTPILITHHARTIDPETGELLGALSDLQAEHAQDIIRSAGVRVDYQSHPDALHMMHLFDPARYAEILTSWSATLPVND

**Q.** Which Km does the source give for C[C@H]1CCCC(=O)CCC/C=C/c2cc(O)cc(O)c2C(=O)O1 [Zearalenone] here?
**A.** The Km was 21.14 ± 0.16 µM.
